We go through 3 compounds from US20140140931A1, “ANTIOXIDANT, NEUROPROTECTIVE AND ANTINEOPLASTIC NANOPARTICLES COMPRISING A THERAPEUTIC AGENT ON AN AMPHIPHILIC SPACER OR AN AMPHIPHILIC POLYMER” (CEDARS-SINAI MEDICAL CENTER, priority 2011, published 2014).

SMILES strings stand for the structures.

In one data set the test system is P-glycoprotein (Pgp). The conditions noted are these: cited from earlier work.
The conditions of data set [1]: cited from earlier work.
The conditions of data set [2]: 30 minutes after administration; cited from earlier work.
Data set [3] concerns intracranial U87 MG tumor xenograft. Description: Survival study of mice with intracranial U87 MG GBM xenograft. The format is in vivo, athymic nu/nu mice. The conditions noted are these: i.v. every three days for 4 weeks from day 7 (16 mg/kg/day CPT-TEG-ALA).
Experimental: All animal studies were performed according to Cedars-Sinai Medical Center Institutional Animal Care and Use Committee protocols. Female 6- to 8-week-old athymic nu/nu mice (Charles River Laboratories) were used for all experiments. […] For Intracranial tumor model, mice underwent intracranial stereotactic implantation of U87 MG cells. Mice were anesthetized using a ketamine and dexmedetomidine combination as a single intraperitoneal injection. 10^5 U87 MG cells suspended in 2 μl of PBS were implanted in the right frontal region of the brain using a Hamilton syringe. The animals received intraperitoneal injection of atipamezole to reverse the dexmedetomidine effect. A single subcutaneous injection of buprenorphine was administered for pain relief.
Two perpendicular diameters of the tumor are measured, and the volume is calculated according to the equation: V (mm^3)=L (mm)×W^2 (mm^2)/2, where L is the longest diameter and W is the diameter perpendicular to L. In the intracranial model, the animals (n=8) received intravenous (tail vein) injection of nanoprodrugs (16 mg/kg/day CPT-TEG-ALA) beginning 7 days after tumor implantation every three days for 4 weeks. […] As control, animals received injection of irinotecan, α-tocopherol nanosuspension, and saline
For mouse survival study, log-rank statistical analysis was performed. […]

For the compound `CCc1c2c(nc3ccc(O)cc13)-c1cc3c(c(=O)n1C2)COC(=O)[C@]3(O)CC` [SN38], in the data set with P-glycoprotein (Pgp), the Pgp substrate result is recorded as “substrates”.

For `CC[C@@]1(O)C(=O)OCc2c1cc1n(c2=O)Cc2cc3ccccc3nc2-1` [camptothecin, (S)-4-ethyl-4-hydroxy-1H-pyran-[3′,4′:6, 7]indolizino[1,2-b]quinoline-3,14(4H, 12H)-dione], the Solubility in water entry in data set [1] is on record as “essentially insoluble in water”. In addition, the “Lactone form hydrolyzed to an open ring” value in data set [2] was 50%.

Consider `CCc1c2c(nc3ccc(OC(=O)N4CCC(N5CCCCC5)CC4)cc13)-c1cc3c(c(=O)n1C2)COC(=O)[C@]3(O)CC` [irinotecan], for which, in the data set on P-glycoprotein (Pgp), the Pgp substrate result is on record as “substrates”. The compound also came in with a Median survival time in data set [3] of 41.0 days.
